{
  "source": "patent US20230225985A1",
  "about": "“TERPE[…] AND THEIR USE” (Phytotherapeutix Ltd., priority 2020, published 2023)",
  "assay_type_in_all_cases": "in vivo, Mouse (ICR:CD-1)",
  "key": {"[1]": {"assay": "PK study: plasma levels after i.p. administration (LC/MS/MS)", "details": "100 mg/kg i.p.; for Time of maximal concentration in plasma after the injection: sampling at 30, 60, 120 min; for concentration at 30 min / concentration at 60 min / concentration at 120 min: CD-1, mouse, plasma, intraperitoneal, 100 mg/kg", "description": "Route(s) of administration: Intraperitoneal (i.p.)\nVehicle for the test compounds and CBD: 1:1:18 ethanol:cremophor (Kolliphor) EL:0.9% saline\nIP administration: 0.5 h (30 min), 1 h, 2 h,\nFor testing of each compound, six CD-1 mice were divided into 2 groups of 3. Animals were administered test agents via i.p. route and blood collected at 30, 60 and 120 min, administration as outlined in Table 1. Blood samples were collected in EDTA-coated microfuge tubes, inverted and placed on an ice pack prior to centrifugation and storage at −70° C. Samples were extracted using an acetonitrile/protein precipitation method and levels of test agent analysed by LC/MS/MS.\nBioanalytical detection method was developed using an LC/MS/MS (ABI 5000 or 5500). Standard curves of the test agent were prepared in an appropriate biological matrix (plasma). Levels of test article was measured in plasma as per the developed method.\nLevels were determined by extrapolating the concentration from a standard curve using linear regression analysis. Method development and bioanalysis was performed by a partner company, Keystone Bioanalytical (North Wales, Pa., US)."}, "[2]": {"test_system": "MES mouse model of seizures", "assay": "Maximal Electroshock (MES) seizure study", "details": "for Effect in MES study (latency to tonic hindlimb seizure) vs vehicle: 200 mg/kg IP", "description": "Route(s) of administration: Intraperitoneal (i.p.) and per oral (p.o.)\n(§1) Vehicle for the test compounds: 1:1:18 ethanol:cremophor (Kolliphor) EL:0.9% saline\nVehicle for phenytoin: 0.5% MC in water\nDose Levels: 100-200 mg/kg (Table 2), Phenytoin 60 mg/kg\nInterval between dose and evaluation: 30 min for test articles and phenytoin, 60 min for CBD\nAnimals were administered vehicle, phenytoin, CBD or test compounds and gross behavioural observations were done for 30 minutes. Proparacaine hydrochloride ophthalmic solution (Butler AHS, Dublin, Ohio) was applied approximately 10 minutes prior to testing to numb the eyes. Thirty to sixty minutes after administration of vehicle, phenytoin, CBD or test compounds, 0.9% saline solution (sodium chloride in water) was applied to both eyes and electro-convulsions were produced by an alternating current delivered via corneal electrodes by a Rodent Shocker generator at a frequency of 60 Hz (Harvard Apparatus, Holliston, Mass.). Parameters for the ICR:CD1 mice were 0.2 s stimulus duration at an intensity of 25 mA. The criterion for seizure occurrence were presence of a tonic hind limb extension, defined as extension exceeding a 90-degree angle with the plane of the body. […] Any seizure activity (i.e. clonic seizures defined as rapid spasms or jerky movements of the limbs) prior to tonic hind limb seizure were recorded as presence of seizure (noted as 1-yes, 0-no). After seizure exhibition or 20-second timeout, mice were euthanized via cervical dislocation.\n(§2) The data was expressed as mean+SEM. Statistical analysis using one-way ANOVA with post-hoc Fisher's LSD test was used to determine statistical significance compared to the vehicle-treated animals."}, "[3]": {"test_system": "PTZ mouse model of seizures", "assay": "PTZ-induced seizures study", "details": "for Protection from clonic seizures (PTZ) vs vehicle / Protection from tonic hindlimb seizures (PTZ) vs vehicle: 200 mg/kg IP, PTZ 100 mg/kg i.p.", "description": "Route(s) of administration: Intraperitoneal (i.p.) and per oral (p.o.) (Diazepam)\nas §1\nVehicle for diazepam: 0.5% MC, 0.1% Tween 80 in water\nInterval between dose and evaluation: 30 min for test articles and diazepam, 60 min for CBD\nMice were acclimated to the procedure room for at least 30 minutes. Pentylenetetrazole (PTZ; SigmaAldrich) was formulated in water to a concentration of 20 mg/ml. Injections of PTZ were made at a volume of 5 ml/kg to produce a final dose of 100 mg/kg. PTZ injections were i.p. Diazepam was formulated at a concentration of 2 mg/ml and administered at volume of 10 ml/kg to produce a final dose of 20 mg/kg. Time to initial myoclonic and tonic hindlimb extensor response was measured. A 10-min maximum latency to seizure was imposed.\nas §2"}, "[4]": {"details": "30 min pretreatment, listed as (−)-trans CBD-PET"}, "[5]": {"details": "30 min pretreatment, listed as CBD-PET"}, "[6]": {"details": "30 min pretreatment, listed as (−)-trans CBD-PET-OH"}, "[7]": {"details": "30 min pretreatment, listed as CBD-PET-OH"}},
  "note": "Values joined by “and” are separate entries in the source; they are usually repeats but may differ in a detail not shown here. Equal values may be shown once. Read-outs that look alike come from different tables or passages of the source.",
  "data": [
    {"smiles": "C=C(C)[C@@H]1CCC(C)=C[C@H]1c1c(O)cc(CCc2ccccc2)cc1O", "note": "[(−)-trans-CBD-PET, (1′R,2′R)-5′-methyl-4-phenethyl-2′-(prop-1-ene-2-yl)-1′,2′,3′,4′-tetrahydro-[1,1′-biphenyl]-2,6-diol]", "values": [
      {"measurement": "(—)-trans-CBD-PET in plasma", "setting": "[1]; 30 min, individual animals", "result": "3519.2 ng/mL and 3872.3 ng/mL"},
      {"measurement": "(—)-trans-CBD-PET in plasma", "setting": "[1]; 60 min, individual animals", "result": "2729.5 ng/mL and 1728.7 ng/mL"},
      {"measurement": "(—)-trans-CBD-PET in plasma", "setting": "[1]; 120 min, individual animals", "result": "2188.6 ng/mL and 770.3 ng/mL and 982.7 ng/mL"},
      {"measurement": "Time of maximal concentration in plasma after the injection", "setting": "[1]", "result": 30, "unit": "min"},
      {"measurement": "concentration at 30 min", "setting": "[1]; 30 min, average of 3 mice, read-out: Average (ng/ml), (—)-trans-CBD-PET in plasma", "result": 3810, "unit": "ng/mL"},
      {"measurement": "concentration at 30 min", "setting": "[1]; 30 min, individual animals, read-out: (—)-trans-CBD-PET in plasma", "result": 4030, "unit": "ng/mL"},
      {"measurement": "concentration at 60 min", "setting": "[1]; 60 min, average of 3 mice, read-out: Average (ng/ml), (—)-trans-CBD-PET in plasma", "result": 2140, "unit": "ng/mL"},
      {"measurement": "concentration at 60 min", "setting": "[1]; 60 min, individual animals, read-out: (—)-trans-CBD-PET in plasma", "result": 1960, "unit": "ng/mL"},
      {"measurement": "concentration at 120 min", "setting": "[1]; 120 min, average of 3 mice, read-out: Average (ng/ml), (—)-trans-CBD-PET in plasma", "result": 1310, "unit": "ng/mL"},
      {"measurement": "Effect in MES study (latency to tonic hindlimb seizure) vs vehicle", "setting": "[2]; 30 min pretreatment", "result": "inactive"},
      {"measurement": "Protection from clonic seizures (PTZ) vs vehicle", "setting": "[3]; [4]", "result": "significant protection"},
      {"measurement": "Protection from tonic hindlimb seizures (PTZ) vs vehicle", "setting": "[3]; [4]", "result": "significant effect"},
      {"measurement": "Protection from clonic seizures (PTZ) vs vehicle", "setting": "[3]; [5]", "result": "activity against both clonic and tonic seizures"},
      {"measurement": "Protection from tonic hindlimb seizures (PTZ) vs vehicle", "setting": "[3]; [5]", "result": "activity against both clonic and tonic seizures"}
    ]},
    {"smiles": "C=C(C)[C@@H]1CCC(C)=C[C@H]1c1c(O)cc(CCc2ccc(O)cc2)cc1O", "note": "[(−)-trans-CBD-PET-OH, (1′R,2′R)-4-(4-hydroxyphenethyl)-5′-methyl-2′-(prop-1-ene-2-yl)-1′,2′,3′,4′-tetrahydro-[1,1′-biphenyl]-2,6-diol]", "values": [
      {"measurement": "(—)-trans-CBD-PET-OH in plasma", "setting": "[1]; 30 min, individual animals", "result": "8897.4 ng/mL and 8936.2 ng/mL"},
      {"measurement": "(—)-trans-CBD-PET-OH in plasma", "setting": "[1]; 60 min, individual animals", "result": "8877.8 ng/mL and 8055.5 ng/mL"},
      {"measurement": "(—)-trans-CBD-PET-OH in plasma", "setting": "[1]; 120 min, individual animals", "result": "2831.1 ng/mL and 3274.9 ng/mL"},
      {"measurement": "Time of maximal concentration in plasma after the injection", "setting": "[1]", "result": 30, "unit": "min"},
      {"measurement": "concentration at 30 min", "setting": "[1]; 30 min, average of 3 mice, read-out: Average (ng/ml), (—)-trans-CBD-PET-OH in plasma", "result": 8120, "unit": "ng/mL"},
      {"measurement": "concentration at 30 min", "setting": "[1]; 30 min, individual animals, read-out: (—)-trans-CBD-PET-OH in plasma", "result": 6520, "unit": "ng/mL"},
      {"measurement": "concentration at 60 min", "setting": "[1]; 60 min, average of 3 mice, read-out: Average (ng/ml), (—)-trans-CBD-PET-OH in plasma", "result": 7920, "unit": "ng/mL"},
      {"measurement": "concentration at 60 min", "setting": "[1]; 60 min, individual animals, read-out: (—)-trans-CBD-PET-OH in plasma", "result": 6840, "unit": "ng/mL"},
      {"measurement": "concentration at 120 min", "setting": "[1]; 120 min, average of 3 mice, read-out: Average (ng/ml), (—)-trans-CBD-PET-OH in plasma", "result": 3460, "unit": "ng/mL"},
      {"measurement": "concentration at 120 min", "setting": "[1]; 120 min, individual animals, read-out: (—)-trans-CBD-PET-OH in plasma", "result": 4290, "unit": "ng/mL"},
      {"measurement": "Effect in MES study (latency to tonic hindlimb seizure) vs vehicle", "setting": "[2]; [6]", "result": "significantly different from vehicle"},
      {"measurement": "Effect in MES study (latency to tonic hindlimb seizure) vs vehicle", "setting": "[2]; [7]", "result": "effective"},
      {"measurement": "Protection from tonic hindlimb seizures (PTZ) vs vehicle", "setting": "[3]; [6]", "result": "significant effect"},
      {"measurement": "Protection from tonic hindlimb seizures (PTZ) vs vehicle", "setting": "[3]; [7]", "result": "particularly effective against tonic seizures"}
    ]},
    {"smiles": "C=C(C)[C@@H]1CCC(C)=C[C@H]1c1c(O)cc(CCCCC)cc1O", "note": "[Cannabidiol, reference compound]", "values": [
      {"measurement": "Effect in MES model vs vehicle", "setting": "[2]; 100 mg/kg IP, 60 min prior to MES", "result": "did not produce a significant effect"},
      {"measurement": "Effect in PTZ model vs vehicle", "setting": "[3]; 100 mg/kg IP, 60 min prior to PTZ", "result": "did not produce a significant effect"}
    ]},
    {"smiles": "CN1C(=O)CN=C(c2ccccc2)c2cc(Cl)ccc21", "note": "[diazepam, reference compound]", "values": [
      {"measurement": "Protection from the seizures (PTZ, clonic and tonic hindlimb)", "setting": "[3]; 30 mg/kg PO (Table 3), 30 min pretreatment, positive control", "result": 100, "unit": "%"}
    ]},
    {"smiles": "O=C1NC(=O)C(c2ccccc2)(c2ccccc2)N1", "note": "[phenytoin, reference compound]", "values": [
      {"measurement": "Protection from the seizures (MES)", "setting": "[2]; 60 mg/kg PO, 30 min pretreatment, positive control", "result": 100, "unit": "%"}
    ]}
  ]
}
